Measurements published in PubChem BioAssay AID1259407 (Chemical Carcinogenesis Research Information System (CCRIS), 2018).
The source made the active and inactive calls. No rule for the calls is given here.

System: CCRIS mutagenicity, Ames/micronucleus/aberration tests
Assay: CCRIS mutagenicity studies
[1] = Test System: AMES SALMONELLA TYPHIMURIUM, Strain/Indicator: TA97, Metabolic Activation: NONE, Method: PREINCUBATION
[2] = Test System: AMES SALMONELLA TYPHIMURIUM, Strain/Indicator: TA98, Metabolic Activation: NONE, Method: PREINCUBATION
[3] = Test System: AMES SALMONELLA TYPHIMURIUM, Strain/Indicator: TA100, Metabolic Activation: NONE, Method: PREINCUBATION
[4] = Test System: AMES SALMONELLA TYPHIMURIUM, Strain/Indicator: TA1535, Metabolic Activation: NONE, Method: PREINCUBATION
[5] = Test System: AMES SALMONELLA TYPHIMURIUM, Strain/Indicator: TA98, Metabolic Activation: RAT, LIVER, S-9, AROCLOR 1254, Method: PREINCUBATION
[6] = Test System: AMES SALMONELLA TYPHIMURIUM, Strain/Indicator: TA100, Metabolic Activation: RAT, LIVER, S-9, AROCLOR 1254, Method: PREINCUBATION
[7] = Test System: AMES SALMONELLA TYPHIMURIUM, Strain/Indicator: TA102, Metabolic Activation: NONE, Method: PREINCUBATION
[8] = Test System: AMES SALMONELLA TYPHIMURIUM, Strain/Indicator: TA102, Metabolic Activation: RAT, LIVER, S-9, AROCLOR 1254, Method: PREINCUBATION
[9] = Test System: AMES SALMONELLA TYPHIMURIUM, Strain/Indicator: TA104, Metabolic Activation: NONE, Method: PREINCUBATION
[10] = Test System: Mouse lymphoma, Strain/Indicator: L5178Y (tk+/tk-), Metabolic Activation: None, Method: Suspension/plate
[11] = Test System: Mouse lymphoma, Strain/Indicator: L5178Y (tk+/tk-), Metabolic Activation: Rat, Liver, S-9, Aroclor 1254, Method: Suspension/plate
[12] = Test System: AMES SALMONELLA TYPHIMURIUM, Strain/Indicator: TA98, Metabolic Activation: NONE, Method: STANDARD PLATE
[13] = Test System: AMES SALMONELLA TYPHIMURIUM, Strain/Indicator: TA98, Metabolic Activation: RAT, LIVER, S-9, AROCLOR 1254, Method: STANDARD PLATE
[14] = Test System: AMES SALMONELLA TYPHIMURIUM, Strain/Indicator: TA100, Metabolic Activation: NONE, Method: STANDARD PLATE
[15] = Test System: AMES SALMONELLA TYPHIMURIUM, Strain/Indicator: TA100, Metabolic Activation: RAT, LIVER, S-9, AROCLOR 1254, Method: STANDARD PLATE
[16] = Test System: AMES SALMONELLA TYPHIMURIUM, Strain/Indicator: TA1535, Metabolic Activation: NONE, Method: STANDARD PLATE
[17] = Test System: AMES SALMONELLA TYPHIMURIUM, Strain/Indicator: TA1535, Metabolic Activation: RAT, LIVER, S-9, AROCLOR 1254, Method: STANDARD PLATE

`O=[N+]([O-])c1ccc(CCO)cc1` was tested, and the mutagenic call (Test System: AMES SALMONELLA TYPHIMURIUM, Strain/Indicator: TA97, Metabolic Activation: HAMSTER, LIVER, S-9, AROCLOR 1254 (10%), Method: PREINCUBATION) was “inactive; negative”, the mutagenic call [1] was “inactive; negative” and the mutagenic call (Test System: AMES SALMONELLA TYPHIMURIUM, Strain/Indicator: TA97, Metabolic Activation: RAT, LIVER, S-9, AROCLOR 1254 (10%), Method: PREINCUBATION) was “inactive; negative”. For the same compound, the mutagenic call (Test System: AMES SALMONELLA TYPHIMURIUM, Strain/Indicator: TA98, Metabolic Activation: HAMSTER, LIVER, S-9, AROCLOR 1254 (10%), Method: PREINCUBATION) was “active; positive”, the mutagenic call [2] was “active; positive” and the mutagenic call (Test System: AMES SALMONELLA TYPHIMURIUM, Strain/Indicator: TA98, Metabolic Activation: RAT, LIVER, S-9, AROCLOR 1254 (10%), Method: PREINCUBATION) was “active; positive”. For the same compound, the mutagenic call (Test System: AMES SALMONELLA TYPHIMURIUM, Strain/Indicator: TA100, Metabolic Activation: HAMSTER, LIVER, S-9, AROCLOR 1254 (10%), Method: PREINCUBATION) was “active; positive”, the mutagenic call [3] was “inactive; negative” and the mutagenic call (Test System: AMES SALMONELLA TYPHIMURIUM, Strain/Indicator: TA100, Metabolic Activation: RAT, LIVER, S-9, AROCLOR 1254 (10%), Method: PREINCUBATION) was “active; positive”. The mutagenic call (Test System: AMES SALMONELLA TYPHIMURIUM, Strain/Indicator: TA1535, Metabolic Activation: HAMSTER, LIVER, S-9, AROCLOR 1254 (10%), Method: PREINCUBATION) was “active; positive”, the mutagenic call [4] was “inactive; negative” and the mutagenic call (Test System: AMES SALMONELLA TYPHIMURIUM, Strain/Indicator: TA1535, Metabolic Activation: RAT, LIVER, S-9, AROCLOR 1254 (10%), Method: PREINCUBATION) was “active; positive”.
With `O=C1c2ccccc2C(=O)c2c1cc(O)c(CO)c2O` the mutagenic call [2] was “active; positive”, the mutagenic call [5] was “active; positive” and the mutagenic call (Test System: AMES SALMONELLA TYPHIMURIUM, Strain/Indicator: TA98, Metabolic Activation: RAT, LIVER, S-9, PCB, Method: PREINCUBATION) was “active; positive”. The mutagenic call [3] was “active; positive”, the mutagenic call [6] was “active; positive” and the mutagenic call (Test System: AMES SALMONELLA TYPHIMURIUM, Strain/Indicator: TA100, Metabolic Activation: RAT, LIVER, S-9, PCB, Method: PREINCUBATION) was “active; positive”. For the same compound, the mutagenic call [7] was “active; positive”, the mutagenic call [8] was “active; positive” and the mutagenic call (Test System: AMES SALMONELLA TYPHIMURIUM, Strain/Indicator: TA102, Metabolic Activation: RAT, LIVER, S-9, Method: PREINCUBATION) was “active; positive”. The mutagenic call [9] was “active; positive”, the mutagenic call (Test System: AMES SALMONELLA TYPHIMURIUM, Strain/Indicator: TA104, Metabolic Activation: RAT, LIVER, S-9, AROCLOR 1254, Method: PREINCUBATION) was “active; positive” and the mutagenic call [4] was “inactive; negative”. The mutagenic call (Test System: AMES SALMONELLA TYPHIMURIUM, Strain/Indicator: TA1535, Metabolic Activation: RAT, LIVER, S-9, AROCLOR 1254, Method: PREINCUBATION) was “inactive; negative”, the mutagenic call (Test System: AMES SALMONELLA TYPHIMURIUM, Strain/Indicator: TA1537, Metabolic Activation: NONE, Method: PREINCUBATION) was “active; positive” and the mutagenic call (Test System: AMES SALMONELLA TYPHIMURIUM, Strain/Indicator: TA1537, Metabolic Activation: RAT, LIVER, S-9, AROCLOR 1254, Method: PREINCUBATION) was “active; positive”. For the same compound, the mutagenic call (Test System: AMES SALMONELLA TYPHIMURIUM, Strain/Indicator: TA1537, Metabolic Activation: RAT, LIVER, S-9, Method: PREINCUBATION) was “active; positive”, the mutagenic call (Test System: AMES SALMONELLA TYPHIMURIUM, Strain/Indicator: TA1538, Metabolic Activation: NONE, Method: PREINCUBATION) was “active; positive” and the mutagenic call (Test System: AMES SALMONELLA TYPHIMURIUM, Strain/Indicator: TA1538, Metabolic Activation: RAT, LIVER, S-9, AROCLOR 1254, Method: PREINCUBATION) was “active; positive”. For the same compound, the mutagenic call (Test System: CHINESE HAMSTER V-79, Strain/Indicator: V-79/AZAGUANINE, Metabolic Activation: NONE, Method: STANDARD PLATE) was “active; positive” and the mutagenic call (Test System: UDS RODENT HEPATOCYTES, Strain/Indicator: THY INCORP, Metabolic Activation: NONE) was “active; positive”.
With `Nc1ncnc2c1ncn2[C@@H]1O[C@H](CO)C[C@@H]1F` the mutagenic call [10] was “inactive; negative” and the mutagenic call [11] was “active; equivocal (previous revaluation positive)”.
With `NCC(=O)CCC(=O)O` the mutagenic call [2] was “inactive; negative”, the mutagenic call [3] was “inactive; negative” and the mutagenic call [7] was “active; positive”. The mutagenic call [9] was “active; positive” and the mutagenic call [4] was “inactive; negative”.
In the case of `CCCCCC(=O)O`, the mutagenic call [1] is reported as “inactive; negative”, the mutagenic call (Test System: AMES SALMONELLA TYPHIMURIUM, Strain/Indicator: TA97, Metabolic Activation: RAT, LIVER, S-9, AROCLOR 1254, Method: PREINCUBATION) is reported as “inactive; negative” and the mutagenic call [7] is reported as “inactive; negative”. For the same compound, the mutagenic call [8] was “inactive; negative”.
With `O=C(O)COc1ccc2ccccc2c1` the mutagenic call (Test System: AMES SALMONELLA TYPHIMURIUM, Strain/Indicator: TA97, Metabolic Activation: NONE, Method: STANDARD PLATE) was “inactive; negative”, the mutagenic call (Test System: AMES SALMONELLA TYPHIMURIUM, Strain/Indicator: TA97, Metabolic Activation: RAT, LIVER, S-9, AROCLOR 1254, Method: STANDARD PLATE) was “inactive; negative” and the mutagenic call [12] was “inactive; negative”. For the same compound, the mutagenic call [13] was “inactive; negative”, the mutagenic call [14] was “inactive; negative” and the mutagenic call [15] was “inactive; negative”. For the same compound, the mutagenic call [16] was “inactive; negative” and the mutagenic call [17] was “inactive; negative”.
For `O.O.O=C([O-])C(=O)[O-].O=C([O-])C(=O)[O-].[K+].[K+].[Pt+2]`, the mutagenic call [2] was “inactive; negative”, the mutagenic call [5] was “inactive; negative” and the mutagenic call [3] was “inactive; negative”. The mutagenic call [6] was “inactive; negative”.
In the case of `O=C(O)c1cc([N+](=O)[O-])cc2cccnc12`, the mutagenic call [12] is reported as “active; positive”, the mutagenic call [13] is reported as “active; positive” and the mutagenic call [14] is reported as “inactive; negative”. The mutagenic call [15] was “active; positive”, the mutagenic call [16] was “inactive; negative” and the mutagenic call [17] was “inactive; negative”. For the same compound, the mutagenic call (Test System: AMES SALMONELLA TYPHIMURIUM, Strain/Indicator: TA1537, Metabolic Activation: NONE, Method: STANDARD PLATE) was “inactive; negative” and the mutagenic call (Test System: AMES SALMONELLA TYPHIMURIUM, Strain/Indicator: TA1537, Metabolic Activation: RAT, LIVER, S-9, AROCLOR 1254, Method: STANDARD PLATE) was “inactive; negative”.
For `O=C1/C(=N\Nc2ccc(/C=C/c3ccc(N/N=C4/C=C(S(=O)(=O)O)c5cccnc5C4=O)cc3S(=O)(=O)O)c(S(=O)(=O)O)c2)C=C(S(=O)(=O)O)c2cccnc21`, the mutagenic call [10] was “inactive; negative” and the mutagenic call [11] was “inactive; negative”.
`COc1cccc2cccnc12` was tested, and the mutagenic call (Test System: AMES SALMONELLA TYPHIMURIUM, Strain/Indicator: TA100, Metabolic Activation: S-9, Method: PREINCUBATION) was “inactive; negative”.
